# Data published in US20050272035A1, “Functional screening method” (priority 2002, published 2005).
# Key:
# [1] = tested on: Cyt-C (EGFP-Cytochrome C); test: Granularity and Membrane Spot image analysis of EGFP-Cytochrome C indicator in HeLa cells; assay type: cell-based; conditions: staurosporine treated HeLa cells, FIG. 10 inset
# Source text: A further group of indicator proteins were transfected into HeLa cells and cells imaged before and after exposure to staurosporine as described in Example 2. […] These algorithms return results which quantitate fluorescence in degrees of granularity (i.e. low value indicates uniform distribution, high value indicates punctate distribution) and in terms of membrane localisation.
# [2] = tested on: ATF1 (activating transcription factor 1); test: Nuclear trafficking (N/C ratio) of ATF1-EGFP indicator in transiently transfected HeLa cells; assay type: cell-based; conditions: 1 μM, 5 minutes, scatterplot FIG. 9
# Protocol: Expression vectors encoding cDNA-EGFP indicators were transiently transfected into HeLa cells growing in wells of 96 well microtitre plates by chemically mediated transfection (Fugene, Roche) and cells incubated under standard growth conditions for 24 hours to permit synthesis of indicator fusion proteins. Cells were subsequently stained with DRAQ 5, a cell permeable nuclear DNA binding dye (Biostatus), to fluorescently mark cell nuclei, and all wells imaged with dual laser excitation (EGFP 488 nm, DRAQ 5 633 nm) using an IN Cell Analyzer (Amersham Biosciences). Data for green (EGFP) and red (DRAQ 5) fluorescence were collected for all cells (FIG. 6) and used to determine thresholds for data separation of transfected cells (EGFP fluorescence above threshold) from non-transfected cells (EGFP fluorescence below threshold).
# Indicator proteins derived from a range of cDNAs as described for Example 1 were transfected into HeLa cells and allowed to express for 24 hours. Following expression, cells were transferred into serum-free media for 2 hours to allow effects of stimuli from serum factors such as cortisol to decay. […] This algorithm allows the spatial distribution of cDNA-EGFP fusion proteins to be quantitated in expressing cells: a low N/C ratio indicating a cytoplasmic location for the indicator protein, a high N/C ration indicating a nuclear location. […]
smiles,measurement,setting,value
CN[C@@H]1C[C@H]2O[C@@](C)([C@@H]1OC)n1c3ccccc3c3c4c(c5c6ccccc6n2c5c31)C(=O)NC4 [staurosporine],ratio of outputs of Granularity and Membrane Spot algorithms for Cyt-C indicator,[1],highest differential return from the two algorithms
same,response of ATF1 indicator N/C ratio to modulator,[2],specific and differential responses
